{
  "source": "patent US20050153899A1",
  "about": "“Therapeutical conversion” (priority 2003, published 2005)",
  "key": {"[1]": {"tested_on": "pituitary tumor", "set-up": "species or system human", "details": "in vivo", "experimental": "Magnetic resonance imaging of the pituitary was performed at baseline and at the end of the study. Pituitary tumor volumes were calculated from the images by a single evaluator. Ultrasound of the gallbladder was performed at baseline and week 32."}, "[2]": {"tested_on": "patients with acromegaly", "experiment": "Signs and symptoms of acromegaly, overall health status, ring size", "format": "in vivo, human", "details": "after conversion from octreotide LAR", "experimental": "Signs and symptoms of acromegaly and overall health status were assessed by use of questionnaire that patients completed. Disease signs and symptoms were scored using an […] (0=absent to 8=severe, incapacitating); overall health status was scored using a 10-point scale (0=worst possible to 10=best possible). Additionally, change in ring size of the fourth digit of the right hand (fifth digit if the fourth was too large) was measured using a jeweler's ring sizing system (plastic) over the course of the study."}, "[3]": {"tested_on": "patients with acromegaly", "experiment": "Glucose homeostasis in conversion study: HbA1c, fasting plasma glucose, insulin, OGTT", "format": "in vivo, human", "experimental": "Glycolated hemoglobin (HbA1c), fasting plasma glucose, and insulin concentrations were used to monitor the effects of pegvisomant on glucose homeostasis. […] Patients also underwent oral glucose tolerance testing (OGTT) to determine the glucose area under the concentration-time curve (AUC) at week 4 before initiation of pegvisomant and at week 32. Plasma glucose levels were assessed at −15, 0, 30, 60, 90, 120, 150, and 180 minutes following an oral glucose load.\nFor the primary outcome measure, exact binomial 2-sided 95% confidence intervals were constructed. All other analyses were descriptive in nature. For continuous measurements, descriptive summaries and subsequent analyses included the number of patients for which data were available, mean, median, standard deviation, and minimum/maximum values. […] The descriptive summaries for categorical or discrete measurements included the number and percentage of patients in each category. Statistical significance defined as a P value of <0.05 was determined by: 1) McNemar's Chi-square test for liver function tests and the proportion of patients with IGF-I below upper limit of normal at during the study versus baseline, or 2) the signed rank test for all other comparisons. Secondary outcomes and safety were reported as descriptive summaries."}, "[4]": {"tested_on": "serum IGF-I", "experiment": "Serum IGF-I concentration (RIA) in open-label octreotide LAR to pegvisomant conversion study", "format": "in vivo, human", "experimental": "This open-label study included patients 18 years of age or older with a previously established diagnosis of acromegaly. […] Treatment with a dopamine agonist was discontinued 4 weeks before the baseline visit. Treatment with pegvisomant 10 mg/day subcutaneous was started at week 4 and continued through week 32. […] A more rapid dose escalation was allowed in a few patients based on the effective dose in the previous study. Vital signs and adverse events were monitored at each study visit; clinical and laboratory assessments were conducted at screening and baseline visits and regularly at 4-week intervals during the study. Laboratory assessments included serum IGF-I and GH concentrations, liver chemistry tests (alanine aminotransferase [ALT], aspartate transaminase [AST], bilirubin, and alkaline phosphatase), and routine laboratory tests (hematology, serum chemistry, and urinalysis). Assaying of serum IGF-I and GH concentrations was performed by an independent laboratory (Endocrine Sciences, Inc., Calabasas Hills, Calif.). Following separation of serum IGF-I from binding proteins by acid-ethanol extraction, serum IGF-I concentrations were determined using the IGF-I Nichols Kit (Cat. […] Serum GH concentrations were measured using a standard double antibody RIA with 125I-labeled recombinant human GH (hGH) tracer and primary rabbit anti-hGH antisera. Bound radioactive antibody-bound hGH was detected using a gamma counter. Specific radioactive hGH binding for each dilution was determined by subtracting the respective nonspecific binding, and the net radioactive hGH binding was calculated as a percentage of the total radioactive hGH added to each tube. Dilutions having a specific binding >2% were designated positive. For the primary outcome measure, exact binomial 2-sided 95% confidence intervals were constructed. All other analyses were descriptive in nature. For continuous measurements, descriptive summaries and subsequent analyses included the number of patients for which data were available, mean, median, standard deviation, and minimum/maximum values. […] The descriptive summaries for categorical or discrete measurements included the number and percentage of patients in each category. […] Secondary outcomes and safety were reported as descriptive summaries."}, "[5]": {"tested_on": "patients with acromegaly", "experiment": "Safety monitoring in conversion study: adverse events, liver function tests, blood pressure, pulse, weight", "format": "in vivo, human", "experimental": "This open-label study included patients 18 years of age or older with a previously established diagnosis of acromegaly. […] Treatment with a dopamine agonist was discontinued 4 weeks before the baseline visit. Treatment with pegvisomant 10 mg/day subcutaneous was started at week 4 and continued through week 32. […] A more rapid dose escalation was allowed in a few patients based on the effective dose in the previous study. Vital signs and adverse events were monitored at each study visit; clinical and laboratory assessments were conducted at screening and baseline visits and regularly at 4-week intervals during the study. Laboratory assessments included serum IGF-I and GH concentrations, liver chemistry tests (alanine aminotransferase [ALT], aspartate transaminase [AST], bilirubin, and alkaline phosphatase), and routine laboratory tests (hematology, serum chemistry, and urinalysis). For the primary outcome measure, exact binomial 2-sided 95% confidence intervals were constructed. All other analyses were descriptive in nature. For continuous measurements, descriptive summaries and subsequent analyses included the number of patients for which data were available, mean, median, standard deviation, and minimum/maximum values. […] The descriptive summaries for categorical or discrete measurements included the number and percentage of patients in each category. […] Secondary outcomes and safety were reported as descriptive summaries."}, "[6]": {"tested_on": "GH or IGF-1 excess", "details": "primary or secondary therapy; cited from earlier work"}, "[7]": {"details": "patients with normal IGF-I at baseline (n=13)"}},
  "data": [
    {"molecule": "pegvisomant", "values": [
      {"measurement": "pituitary volume, mean change", "setting": "[1]", "result": 0.06, "unit": "cm3"},
      {"measurement": "pituitary volume, median change", "setting": "[1]", "result": 0, "unit": "cm3"},
      {"measurement": "pituitary volume, range of change", "setting": "[1]", "result": "−0.73 to 1.1", "unit": "cm3"},
      {"measurement": "mean overall signs-and-symptoms scores, overall health status, measures of ring size", "setting": "[2]", "result": "improved"},
      {"measurement": "change in median HbA1c", "setting": "[3]; all patients, 32-week study", "result": "significant decrease"},
      {"measurement": "decrease in fasting plasma glucose", "setting": "[3]; [7]", "result": 1.7, "unit": "mmol/L"},
      {"measurement": "decrease in median HbA1c", "setting": "[3]; [7]", "result": 0.2, "unit": "%"},
      {"measurement": "peak insulin concentration", "setting": "[3]; week 12", "result": 90, "unit": "pmol/L"},
      {"measurement": "glucose AUC during 2-hour OGTT", "setting": "[3]; week 32", "result": 1280, "unit": "mmol·min/L"},
      {"measurement": "insulin/glucose ratio", "setting": "[3]; week 32", "result": 13.6},
      {"measurement": "median fasting glucose", "setting": "[3]; week 32", "result": 4.7, "unit": "mmol/L"},
      {"measurement": "median insulin concentration", "setting": "[3]; week 32", "result": 69, "unit": "pmol/L"},
      {"measurement": "cumulative percentage of patients achieving at least one IGF-I concentration within normal age-related range", "setting": "[4]; any time during the study", "result": 85, "unit": "%"},
      {"measurement": "change in IGF-I concentrations", "setting": "[4]; patients with baseline IGF-I above age-adjusted reference range", "result": "significantly reduced"},
      {"measurement": "change in IGF-I concentrations", "setting": "[4]; patients with normal IGF-I levels at baseline", "result": "not significantly changed"},
      {"measurement": "serum IGF-I concentration", "setting": "[4]; week 32, all patients", "result": 292, "unit": "ng/mL"},
      {"measurement": "patients with normalized IGF-I concentrations", "setting": "[4]; week 32, 38 of 49 patients", "result": 77.6, "unit": "%"},
      {"measurement": "clinically relevant changes in serum ALT, ASP or bilirubin in patients with normal liver function at baseline", "setting": "[5]; in vivo", "result": "No patient"},
      {"measurement": "elevations in blood pressure or pulse", "setting": "[5]; in vivo", "result": "No significant or clinically relevant elevations"},
      {"measurement": "mean diastolic blood pressure", "setting": "[5]; in vivo", "result": 76, "unit": "mm Hg"},
      {"measurement": "mean systolic blood pressure", "setting": "[5]; in vivo", "result": 126, "unit": "mm Hg"},
      {"measurement": "patients reporting at least 1 adverse event", "setting": "[5]; in vivo", "result": 26.4, "unit": "%"},
      {"measurement": "patients with abnormal liver function tests (≧3 times ULN)", "setting": "[5]; in vivo", "result": "No patients had abnormal liver function tests"},
      {"measurement": "patients with treatment-related constipation", "setting": "[5]; in vivo", "result": 3.8, "unit": "%"},
      {"measurement": "patients with treatment-related injection-site reaction", "setting": "[5]; in vivo", "result": 3.8, "unit": "%"},
      {"measurement": "serious treatment-related adverse events", "setting": "[5]; in vivo", "result": "No serious treatment-related adverse events"},
      {"measurement": "patients with anomalous spikes in ALT levels", "setting": "[5]; week 20 to week 24", "result": 5.7, "unit": "%"}
    ]},
    {"molecule": "C[C@@H](O)[C@@H]1NC(=O)[C@H](CCCCN)NC(=O)[C@@H](Cc2c[nH]c3ccccc23)NC(=O)[C@H](Cc2ccccc2)NC(=O)[C@@H](NC(=O)[C@H](N)Cc2ccccc2)CSSC[C@@H](C(=O)N[C@H](CO)[C@@H](C)O)NC1=O", "note": "[Octreotide]", "values": [
      {"measurement": "patients in whom GH or IGF-1 excess is controlled", "setting": "[6]", "result": "50-60%"}
    ]}
  ]
}
